Assay [1] concerns acute miocardial infarction caused by ligation of coronary artery. The assay is described as follows: Acute miocardial infarction by coronary artery ligation in canines (Example 3). The conditions noted are these: canine; for Infarction size/heart size (%) / Infarction size/ventricles size (%): n=2. The format is in vivo, Adult hybrid canines. Here is the method:
(§1) Methods: Applying the model of acute miocardial infarction caused by ligation of coronary artery, detecting miocardial infarction scope, coronary arterial flow and myocardial consumption of oxygen to observe the curative effect of MPD injection.
Canine was anaesthetized by 3% Pentobarbital Sodium (1 mL/kg), opening the chest, exposing the heart and making up a arcula cordis bed; leading on an epicardial electrode and then ligating the root of the left anterior descending of coronary artery (LADCA). Venous cannula on thigh was administered to inject drug, arterial cannula on cervical and pipe from external jugular vein to vena coronaria sinus were administered, thus the blood was obtained separately and AtV oxygen content were measured.
2.2.3 Six canines were randomly divided into model control group (injecting physiological saline 1 mL/1 kg by femoral vein), positive control group (Diltiazem Hydrochloride solution 0.5 mg/kg) and MPD treated group (20 mg/kg by femoral vein), two canines per group. The data of N-ST, Σ-ST, the blood oxygen content of vena coronaria sinus and artery, and the scope of miocardial infarction of pro-administration were collected after administration at once, and 5, 15, 30, 60, 120, 180 minutes after administration.
Epicardial electrogram: recording the change of N-ST and Σ-ST.
(§2) Determining the scope of miocardial infarction (N-BT staining method): quickly taking out the heart from the executed animal, then washing by physiologic saline and dewatering with filter paper, the heart was cut into 4 pieces uniformly from apex of heart to ligating thread, then the pieces were put into N-BT staining solution, keeping in common temperature, avoiding light in 2 minutes. Then measuring the size of each slice, and the size of miocardial infarction (non-staining zone with N-BT) by colorful multimedia patho-image analytical system, total area of ventricular muscle, total area of infarction of ventricular muscle, and the ratio of miocardial infarction size relative to the size of ventricles were measured respectively.

Assay [2] deals with Rat model of AMI. Put plainly: Rat model of AMI by ligating of coronary artery, PPD and MPD by pouring to stomach (Example 4). Type of assay: in vivo, Wistar rats. Particulars: for Death rate in operation / Infarction size/whole heart size (%): experiment 2 (repeated), 40 mg/kg by pouring to stomach. As for the experimental part: (§3) Methods: Rat model of AMI was established by ligating of coronary artery.
(§4) Rat was anaesthetized by 3.5% chloral hydrate (10 mL/kg, by weight), then linking to electric-respirator, scraping off the fur of chest, opening thoracic cavity, exposing cardiac pericardium and then ligating the root of the left anterior descending of coronary artery (LADCA).
12 rats were randomly divided into model control group (physiological saline 5 mL/kg by pouring down throat) and PPD treated group (40 mg/5 mL/kg, by pouring to stomach), 6 rats per group. Rats were administrated one time after ligating, then be executed 24 hours later.
24 rats were randomly divided into model control group (physiological saline 5 mL/kg by pouring to stomach), MPD treated group (40 mg/5 mL/kg, by pouring to stomach) and PPD treated group (40 mg/5 mL/kg, by pouring to stomach). Rats were administrated one time after ligating, then be executed 24 hours later.
as §2, with “5” for “4”

Assay [3] has as its system acute miocardial infarction caused by ligation of coronary artery. The assay is described as follows: Acute miocardial infarction by coronary artery ligation in rats, MPD injection (Example 3). Type of assay: in vivo, Wistar rats. The conditions noted are these: rat, n=10. Here is the method: as §1, §4
2.2.1 Preliminary experiment: twenty rats were randomly divided into model control group (injecting physiological saline 3 mL/kg by vena caudalis) and MPD treated group (40 mg/kg, i.v), ten rats per group.
2.2.2 Repeated experiment: fifty rats were randomly divided into model control group (injecting physiological saline 3 ml/kg by vena caudalis), Di'ao Xinxuekang group (administering 40 mg/kg by intragastric administration), MPD dose-intensive group (80 mg/kg by vena caudalis injection), MPD moderate dose group (40 mg/kg) and MPD low-dose group (20 mg/kg), ten rats per group. Rats were treated after 30 minutes of preparing model successfully, and were executed after 24 hours, and observing the results.
as §2

Assay [4] relates to Rat model of AMI. The assay is described as follows: Rat model of AMI by ligating of coronary artery, MPD, PPD and MPD+PPD mixture (Example 5). Type of assay: in vivo, Wistar rats. The conditions noted are these: 40 mg/kg by pouring to stomach, one time after ligating, 24 h, relative to size of ventricles. As for the experimental part: as §3, §4
33 rats were randomly divided into model control group (physiological saline 5 mL/kg by pouring down throat), MPD treated group (40 mg/5 mL/kg, by pouring to stomach), PPD treated group (40 mg/5 mL/kg, by pouring to stomach) and MPD+PPD treated group (40 mg/5 mL/kg, by pouring to stomach). […]
as §2, with “5” for “4”

[5] abbreviates: 20 mg/kg by femoral vein, 20 mg/kg.

Counter-ions that a name gives are not always drawn.

Consider `COc1ccc([C@@H]2Sc3ccccc3N(CCN(C)C)C(=O)[C@@H]2OC(C)=O)cc1` [Diltiazem Hydrochloride, reference compound], for which, in assay [1] (0.5 mg/kg), the “Infarction size/heart size (%)” value was found to be 1.81 ± 0.79 % and the “Infarction size/ventricles size (%)” value worked out at 4.36 ± 1.15 %.

`CO[C@]1(CC[C@@H](C)CO[C@@H]2O[C@H](CO)[C@@H](O)[C@H](O)[C@H]2O)O[C@H]2C[C@H]3[C@@H]4CC=C5C[C@@H](O[C@@H]6O[C@H](CO)[C@@H](O[C@@H]7O[C@@H](C)[C@H](O)[C@@H](O)[C@H]7O)[C@H](O)[C@H]6O[C@@H]6O[C@@H](C)[C@H](O)[C@@H](O)[C@H]6O)CC[C@]5(C)[C@H]4CC[C@]3(C)[C@H]2[C@@H]1C` [MPD, Methylprotodioscin]: in the assay on Rat model of AMI [2], the “Death rate in operation” value is 0% (0/8). The “Infarction size/whole heart size (%)” value in the assay on Rat model of AMI [2] (one time after ligating, 24 h) was found to be 33.71 ± 6.73 %. The “miocardial infarction size/ventricular size (%)” value is given as 33.4±8.09% in assay [3] (preliminary experiment, 40 mg/kg i.v., X ± SD, 40 mg/kg); 30.62±9.46% in assay [3] (repeated experiment, dose-intensive 80 mg/kg by vena caudalis injection, 24 h); 37.89±8.41% in assay [3] (repeated experiment, low-dose 20 mg/kg by vena caudalis injection, 24 h, 20 mg/kg); 32.32±6.92% in assay [3] (repeated experiment, moderate dose 40 mg/kg by vena caudalis injection, 24 h, 40 mg/kg). The “N-ST (epicardial electrogram) comparing with control group” value in assay [1] (20 mg/kg by femoral vein, FIG. 4) is reported as “no significant difference”. Further, in assay [1] (20 mg/kg by femoral vein, FIG. 6), the “flow of aeteria coronaria comparing with control group” value was “no significant difference”. In assay [1] (20 mg/kg by femoral vein, FIG. 7), the “miocardial consumption of oxygen (MCO) comparing with control group” value was “no significant difference”. Also, the “Infarction size/heart size (%)” value in assay [1] (setting [5]) is reported as 2.74±0.33%. In addition, in assay [1] (setting [5]), the “Infarction size/ventricles size (%)” value turned out to be 7.30±0.97%. Besides, the “infarct size (IS) (%)” value in the assay with Rat model of AMI [4] is 36.24±3.74%.

For `CC1=C(CC[C@@H](C)CO[C@@H]2O[C@H](CO)[C@@H](O)[C@H](O)[C@H]2O)O[C@H]2C[C@H]3[C@@H]4CC=C5C[C@@H](O[C@@H]6O[C@H](CO)[C@@H](O[C@@H]7O[C@@H](C)[C@H](O)[C@@H](O)[C@H]7O)[C@H](O)[C@H]6O[C@@H]6O[C@@H](C)[C@H](O)[C@@H](O)[C@H]6O)CC[C@]5(C)[C@H]4CC[C@]3(C)[C@@H]12` [PPD, Pseudoprotodioscin], in the assay with Rat model of AMI [2] (experiment 1, 40 mg/kg by pouring to stomach, one time after ligating, 24 h, n=6, 40 mg/kg), the “miocardial infarction size/ventricular size (%)” value is given as 36.25±7.20%. In addition, the “Death rate in operation” value with Rat model of AMI [2] is 14.3% (1/7). In addition, the “Infarction size/whole heart size (%)” value in the assay on Rat model of AMI [2] (one time after ligating, 24 h) was found to be 36.31 ± 1.90 %. In the assay on Rat model of AMI [4], the “infarct size (IS) (%)” value is listed as 36.31±1.90%.

Source of the values: patent US20070213280A1, “Steroidal Saponins Compound, the Process for Producing the Same and the Use Thereof” (GUILIN INNOVATIVE MEDICINES INVESTMENT LTD., CO., priority 2004, published 2007).
